Earlier results, collected in PubChem BioAssay AID1259409 (Chemical Carcinogenesis Research Information System (CCRIS), 2018).

System: rodent chemically induced tumor inhibition, incidence and multiplicity
Assay: CCRIS tumor inhibitor studies
Details: Carcinogen: PHENACETIN, 62-44-2, N-BUTYL-N-(4-HYDROXYBUTYL)NITROSAMINE, 3817-11-6, Carcinogen: PHENACETIN, 62-44-2, N-BUTYL-N-(4-HYDROXYBUTYL)NITROSAMINE, 3817-11-6, Dose [Inhibitor]: 0, Route [Inhibitor]: SUBCUTANEOUS, Species: MOUSE, Strain/Sex: NON/SHI/MALE, Promoter: NONE USED

In the case of `CC[C@H](C)[C@@H](NC(=O)[C@@H](CCC(=O)O)NC(=O)[C@@H](CO)NC(=O)[C@@H](CO)NC(=O)[C@H](NC(=O)[C@@H](CC(=O)O)NC(=O)[C@H](NC(=O)[C@H](C)NC(=O)[C@H](C)NC(=O)[C@@H](CC(=O)O)NC(=O)[C@@H](CO)NC(=O)[C@H](N)CS)C(C)C)C(C)C)C(=O)N[C@@H](C(=O)N[C@@H](C(=O)N[C@H](CCCCN)C(=O)N[C@H](CC(=O)O)C(=O)N[C@H](CC(C)C)C(=O)N[C@H](CCCCN)C(=O)N[C@H](CCC(=O)O)C(=O)N[C@H](CCCCN)C(=O)N[C@H](CCCCN)C(=O)N[C@H](CCC(=O)O)C(=O)N[C@@H](C(=O)N[C@@H](C(=O)N[C@H](CCC(=O)O)C(=O)N[C@H](CCC(=O)O)C(=O)N[C@@H](C)C(=O)N[C@H](CCC(=O)O)C(=O)O)C(C)C)C(C)C)C(C)C)[C@H](C)O`, the “tumour outcome (control, treated, inhibition, significance)” value (60 UG IN 0.1 ML SALINE 2/WK FOR 6 WK CONCURRENTLY WITH BBN TREATMENT (STUDY DURATION: 34 WK), Target Tissue: Type of Lesion: URINARY BLADDER: CARCINOMA, Dose [Carcinogen]: 2% PHENACETIN IN DIET FOR 12 WK FOLLOWED BY 0.05% BBN IN DRINKING WATER FOR 6 WK) is listed as 7/20 (35%), 5/19 (26%), 26%, not significant, the “tumour outcome (control, treated, inhibition, significance)” value (60 UG IN 0.1 ML SALINE 2/WK FOR 16 WK BEGINNING POST CARCINOGEN TREATMENT (STUDY DURATION: 30 WK), Target Tissue: Type of Lesion: RENAL PELVIS: CARCINOMA, Dose [Carcinogen]: 2% PHENACETIN IN DIET FOR 8 WK FOLLOWED BY 0.05% BBN IN DRINKING WATER FOR 6 WK) is listed as 2/11 (18%), 8/12 (67%), -272%, not significant and the “tumour outcome (control, treated, inhibition, significance)” value (60 UG IN 0.1 ML SALINE 2/WK FOR 16 WK BEGINNING POST CARCINOGEN TREATMENT (STUDY DURATION: 30 WK), Target Tissue: Type of Lesion: URINARY BLADDER: CARCINOMA, Dose [Carcinogen]: 2% PHENACETIN IN DIET FOR 8 WK FOLLOWED BY 0.05% BBN IN DRINKING WATER FOR 6 WK) is listed as 2/11 (18%), 3/12 (25%), -39%, not significant. The “tumour outcome (control, treated, inhibition, significance)” value (60 UG IN 0.1 ML SALINE 2/WK FOR 16 WK BEGINNING POST CARCINOGEN TREATMENT (STUDY DURATION: 34 WK), Target Tissue: Type of Lesion: RENAL PELVIS: CARCINOMA, Dose [Carcinogen]: 2% PHENACETIN IN DIET FOR 12 WK FOLLOWED BY 0.05% BBN IN DRINKING WATER FOR 6 WK) was 9/20 (45%), 10/18 (56%), -24%, not significant, the “tumour outcome (control, treated, inhibition, significance)” value (60 UG IN 0.1 ML SALINE 2/WK FOR 16 WK BEGINNING POST CARCINOGEN TREATMENT (STUDY DURATION: 34 WK), Target Tissue: Type of Lesion: URINARY BLADDER: CARCINOMA, Dose [Carcinogen]: 2% PHENACETIN IN DIET FOR 12 WK FOLLOWED BY 0.05% BBN IN DRINKING WATER FOR 6 WK) was 7/20 (35%), 4/18 (22%), 37%, not significant and the “tumour outcome (control, treated, inhibition, significance)” value (60 UG IN 0.1 ML SALINE 2/WK FOR 22 WK BEGINNING POST PHENACETIN TREATMENT (STUDY DURATION: 30 WK), Target Tissue: Type of Lesion: RENAL PELVIS: CARCINOMA, Dose [Carcinogen]: 2% PHENACETIN IN DIET FOR 8 WK FOLLOWED BY 0.05% BBN IN DRINKING WATER FOR 6 WK) was 2/11 (18%), 2/12 (17%), 5%, not significant. The “tumour outcome (control, treated, inhibition, significance)” value (60 UG IN 0.1 ML SALINE 2/WK FOR 22 WK BEGINNING POST PHENACETIN TREATMENT (STUDY DURATION: 30 WK), Target Tissue: Type of Lesion: URINARY BLADDER: CARCINOMA, Dose [Carcinogen]: 2% PHENACETIN IN DIET FOR 8 WK FOLLOWED BY 0.05% BBN IN DRINKING WATER FOR 6 WK) was 2/11 (18%), 1/12 (8%), 56%, not significant, the “tumour outcome (control, treated, inhibition, significance)” value (60 UG IN 0.1 ML SALINE 2/WK FOR 22 WK BEGINNING POST PHENACETIN TREATMENT (STUDY DURATION: 34 WK), Target Tissue: Type of Lesion: RENAL PELVIS: CARCINOMA, Dose [Carcinogen]: 2% PHENACETIN IN DIET FOR 12 WK FOLLOWED BY 0.05% BBN IN DRINKING WATER FOR 6 WK) was 9/20 (45%), 13/19 (68%), -51%, not significant and the “tumour outcome (control, treated, inhibition, significance)” value (60 UG IN 0.1 ML SALINE 2/WK FOR 22 WK BEGINNING POST PHENACETIN TREATMENT (STUDY DURATION:34 WK), Target Tissue: Type of Lesion: URINARY BLADDER: CARCINOMA, Dose [Carcinogen]: 2% PHENACETIN IN DIET FOR 12 WK FOLLOWED BY 0.05% BBN IN DRINKING WATER FOR 6 WK) was 7/20 (35%), 7/19 (37%), -6%, not significant.
